# Literature values in patent US20210177818A1, “Antibacterial Formulation for Treating and Prophylactic use in Bacterial, and Fungal Urinary Bladder Infections” (priority 2019, published 2021).
# Settings: in acetone, acetic acid, or ethanol
structure (smiles),measurement,value
"CCCCCCCCCCCCCCCC[n+]1ccccc1 [Cetylpyridinium chloride, 1-hexa-decyl pyridinium chloride]",solubility,insoluble
